Literature values, collected in patent US20220265733A1, “COMPOSITIONS COMPRISING BACTERIAL STRAINS” (4D Pharma Research Limited, priority 2019, published 2022).

Legend:
class I HDAC = settings: reference [70]
DSS-colitis murine model = settings: reference [70]

CCCC(CCC)C(=O)O [valproic acid]
HDAC inhibition (class I HDAC): associated with class I HDAC inhibition
colitis (DSS-colitis murine model): amelioration
